Legend:
Type in all cases: in vivo
[1] = tested on: Plutella xylostella (diamond back moth); assay: Example B3: Plutella xylostella (larvicide, feeding/residual contact activity, preventive), artificial diet MTP; conditions: 120 h, L2 larvae on artificial diet, 5 days incubation
Method: Plutella xylostella (Diamond Back Moth) (Larvicide, Feeding/Residual Contact Activity, Preventive) 24-well microtiter plate (MTP) with artificial diet is treated with test solutions by pipetting. After drying, the MTP's are infested with larvae (L2) (10-15 per well). After an incubation period of 5 days, samples are checked for larval mortality, antifeedant and growth regulation.

[2] = tested on: Heliothis virescens (tobacco budworm); assay: Example B2: Activity against Heliothis virescens (ovo-larvicide, feeding/contact activity, curative), eggs on artificial diet; conditions: 96 h, 4 days incubation
Method: Activity Against Heliothis virescens (Tobacco Budworm) (Ovo-Larvicide, Feeding/Contact Activity, Curative) Eggs (0-24 h old) are placed in 24-well microtiter plate on artificial diet and treated with test solutions by pipetting. After an incubation period of 4 days, samples are checked for egg mortality, larval mortality, and growth regulation.

[3] = tested on: Diabrotica balteata (corn root worm); assay: Example B4: Diabrotica balteata (larvicide, feeding/residual contact activity, preventive), artificial diet MTP; conditions: 120 h, L2 larvae on artificial diet, 5 days incubation
Method: Diabrotica balteata (Corn Root Worm) (Larvicide, Feeding/Residual Contact Activity, Preventive) 24-well microtiter plate (MTP) with artificial diet is treated with test solutions by pipetting. After drying, the MTP's are infested with larvae (L2) (6-10 per well). After an incubation period of 5 days, samples are checked for larval mortality, antifeedant and growth regulation.

[4] = tested on: Spodoptera littoralis (Egyptian cotton leafworm); assay: Example B1: Activity against Spodoptera littoralis (larvicide, feeding/residual contact activity, preventive), cotton leaf discs; conditions: foliar, 72 h, L1 larvae on cotton leaf discs, 3 days after treatment
Text: Activity Against Spodoptera littoralis (Egyptian Cotton Leafworm)
(Larvicide, Feeding/Residual Contact Activity, Preventive)
The samples are checked for mortality, repellent effect, feeding behaviour, and growth regulation 3 days after treatment. In this test, compounds listed in Table P above show good activity. In particular compounds P.1, P.2, P.3, P.4, P.5, P.6, P.7, P.8, P.9, P.10, P.11, P.12, P.13, P.14, P.15, P.16, P.17, P.18, P.19, P.20, P.21, P.22, P.23, P.24, P.25, P.26, P.27, P.28, P.29, P.30, P.31, P.32, P.33, P.34, P.35, P.36, P.37, P.38, P.39, P.40, P.41, P.42, P.43, P.44, P.46, P.50, P.51, P.52, P.55, P.56, P.57, P.58, P.59, P.60, P61, P.66, P.67, P.68, P.69, P.70, P.71, P.72, P.73, P.74, P.75, P.76, P.77, P.78, P.83, P.84, P.87 and P.88 show an activity of over 80% at a concentration of 400 ppm.

Measured: pest or weed control at 400 ppm

CC(C)NC(=O)c1c(NC(=O)c2cc(C(F)(F)F)nn2-c2ncccc2Cl)c(Cl)cc2c1OCO2 [P.1]
> 80%: [1] | [2] | [3] | [4]

CCNC(=O)c1c(NC(=O)c2cc(C(F)(F)F)nn2-c2ncccc2Cl)c(Cl)cc2c1OCO2 [P.2]
> 80%: [1] | [2] | [3] | [4]

CC(C)NC(=O)c1c(NC(=O)c2cc(Cl)nn2-c2ncccc2Cl)c(Cl)cc2c1OCO2 [P.3]
> 80%: [1] | [2] | [3] | [4]

CC(C)NC(=O)c1c(NC(=O)c2cc(C(F)F)nn2-c2ncccc2Cl)c(Cl)cc2c1OCO2 [P.4]
> 80%: [1] | [2] | [3] | [4]

O=C(NC1(C2CC2)CC1)c1c(NC(=O)c2cc(Cl)nn2-c2ncccc2Cl)c(Cl)cc2c1OCO2 [P.6]
> 80%: [1] | [2] | [3] | [4]

COc1cc(C(=O)Nc2c(Cl)cc3c(c2C(=O)NC2(C4CC4)CC2)OCO3)n(-c2ncccc2Cl)n1 [P.7]
> 80%: [1] | [2] | [4]

CCNC(=O)c1c(NC(=O)c2cc(Cl)nn2-c2ncccc2Cl)c(Cl)cc2c1OCO2 [P.8]
> 80%: [1] | [2] | [3] | [4]

CNC(=O)c1c(NC(=O)c2cc(Cl)nn2-c2ncccc2Cl)c(Cl)cc2c1OCO2 [P.9]
> 80%: [1] | [2] | [4]

CC(C)NC(=O)c1c(NC(=O)c2cc(Br)nn2-c2ncccc2Cl)c(Cl)cc2c1OCO2 [P.10]
> 80%: [1] | [2] | [3] | [4]

O=C(NC1(C2CC2)CC1)c1c(NC(=O)c2cc(Br)nn2-c2ncccc2Cl)c(Cl)cc2c1OCO2 [P.11]
> 80%: [1] | [2] | [3] | [4]

O=C(NC1(C2CC2)CC1)c1c(NC(=O)c2cc(C(F)(F)F)nn2-c2ncccc2Cl)c(Cl)cc2c1OC(F)(F)O2 [P.17]
> 80%: [1] | [2] | [3] | [4]

O=C(NC1(C2CC2)CC1)c1c(NC(=O)c2cc(Cl)nn2-c2ncccc2Cl)c(Cl)cc2c1OC(F)(F)O2 [P.25]
> 80%: [1] | [2] | [3] | [4]

Cc1cc2c(c(C(=O)NC3(C4CC4)CC3)c1NC(=O)c1cc(Br)nn1-c1ncccc1Cl)OC(F)(F)O2 [P.28]
> 80%: [1] | [2] | [3] | [4]

Cc1cc2c(c(C(=O)NC3(C4CC4)CC3)c1NC(=O)c1cc(Cl)nn1-c1ncccc1Cl)OC(F)(F)O2 [P.32]
> 80%: [1] | [2] | [3] | [4]

CCc1cc2c(c(C(=O)NC)c1NC(=O)c1cc(Br)nn1-c1ncccc1Cl)OC(F)(F)O2 [P.33]
> 80%: [1] | [2] | [4]

CCc1cc2c(c(C(=O)NC(C)C)c1NC(=O)c1cc(Br)nn1-c1ncccc1Cl)OC(F)(F)O2 [P.34]
> 80%: [1] | [2] | [4]

CNC(=O)c1c(NC(=O)c2cc(OC)nn2-c2ncccc2Cl)c(C)cc2c1OC(F)(F)O2 [P.35]
> 80%: [1] | [2] | [4]

CC(C)NC(=O)c1c(NC(=O)c2cc(C(F)(F)F)nn2-c2ncccc2Cl)c(Cl)cc2c1C(O)CC2 (centres unmarked) [P.48]
> 80%: [1]

CC(C)NC(=O)c1c(NC(=O)c2cc(C(F)(F)F)nn2-c2ncccc2Cl)c(Cl)cc2c1C(F)CC2 (centres unmarked) [P.49]
> 80%: [1] | [2] | [3]

O=C(NC1(C2CC2)CC1)c1c(NC(=O)c2cc(C(F)(F)F)nn2-c2ncccc2Cl)c(Cl)cc2c1C(O)CC2 (centres unmarked) [P.51]
> 80%: [1] | [2] | [4]

CC(C)NC(=O)c1c(NC(=O)c2cc(C(F)(F)F)nn2-c2ncccc2Cl)c(Cl)cc2c1/C(=N/O)CC2 [P.52]
> 80%: [1] | [2] | [4]

O=C1CCc2cc(Cl)c(NC(=O)c3cc(Br)nn3-c3ncccc3Cl)c(C(=O)NC3(C4CC4)CC3)c21 [P.53]
> 80%: [1]

CC(C)NC(=O)c1c(NC(=O)c2cc(Br)nn2-c2ncccc2Cl)c(Cl)cc2c1C(O)CC2 (centres unmarked) [P.54]
> 80%: [1] | [2] | [3]

O=C(NC1(C2CC2)CC1)c1c(NC(=O)c2cc(Br)nn2-c2ncccc2Cl)c(Cl)cc2c1C(F)CC2 (centres unmarked) [P.55]
> 80%: [1] | [2] | [4]

CC(C)NC(=O)c1c(NC(=O)c2cc(Br)nn2-c2ncccc2Cl)c(Cl)cc2c1C(F)CC2 (centres unmarked) [P.56]
> 80%: [1] | [2] | [4]

CCNC(=O)c1c(NC(=O)c2cc(OCC(F)(F)F)nn2-c2ncccc2Cl)c(Cl)cc2c1OCO2 [P.58]
> 80%: [1] | [2] | [4]

CNC(=O)c1c(NC(=O)c2cc(Br)nn2-c2ncccc2Cl)ccc2c1S(=O)(=O)C(C)C2 (centres unmarked) [P.59]
> 80%: [1] | [2] | [4]

CC1Cc2ccc(NC(=O)c3cc(Br)nn3-c3ncccc3Cl)c(C(=O)NC3CC3)c2S1(=O)=O (centres unmarked) [P.61]
> 80%: [1] | [2] | [4]

CCNC(=O)c1c(NC(=O)c2cc(C(F)F)nn2-c2ncccc2Cl)c(C)cc2c1OCO2 [P.72]
> 80%: [1] | [2] | [4]

CC(C)NC(=O)c1c(NC(=O)c2cc(C(F)F)nn2-c2ncccc2Cl)c(Br)cc2c1OC(C)C2 (centres unmarked) [P.84]
> 80%: [1] | [2] | [4]

CC(C)NC(=O)c1c(NC(=O)c2cc(Br)nn2-c2ncccc2Cl)c(Br)cc2c1S(=O)(=O)C(C)C2 (centres unmarked) [P.87]
> 80%: [1] | [2] | [4]
